Reference: patent US20150368203A1, “PHARMACEUTICAL FORMULATIONS CONTAINING IPIDACRINE AND THEIR USE FOR THE TREATMENT OF DISORDERS OF POTENCY AND DISORDERS OF OTHER FORMS OF SEXUAL ACTIVITY” (Limited Liability Company "KONSORTSIUM-PIK", priority 2012, published 2015)

What was measured:
[1] = tested on: ovariectomized, hypoestrogenic rats; settings: introduction into the lateral ventricle in the brain; cited from earlier work
[2] = tested on: male rats exposed to chronic stress (electrical current); assay: Sexual activity of male rats in the model of chronic stress caused by electrical current exposure; format: in vivo, rat
Method: The most appropriate model (in terms of the ease of implementation) is the model of psychogenic sexual dysfunction caused by exposure to physical factors (electrical current) in rats.
The pre-experiment with the animals was performed similar to that described in Example 2.
The two groups of the animals similar in the sexual activity level were formed: control (administration of distilled water), pharmaceutical formulation (on ipidacrine basis at a dose of 1.7 mg/kg). The animals of the control and experimental groups were daily exposed to current with a voltage of 30V for 30 min once a minute with an impulse with duration of 1 sec. The drug was administered 30 minutes before the stress, the testing was performed 60 min after the stress.

[3] = tested on: hypoactive male rats with spontaneously reduced sexual function; assay: Sexual activity of initially hypoactive male rats with spontaneously reduced sexual function; format: in vivo, rat
Description: This model is associated with the clinical conditions of anorgasmia or delayed ejaculation in humans. According to the results of the five-fold testing of the intact animals, the groups of hypoactive male rats were formed. The criterion for selection was average number of ejaculations of less than 0.5 according to the results of the five-fold testing.
To assess the effect of ipidacrine on sexual function of rats with the reduced sexual activity, the groups of the animals with initially low manifestations of copulatory and ejaculatory components of behavior were formed. This model reflects the clinical conditions of anorgasmia and delayed ejaculation. The effect of the drug on the integral indicator of the sexual function (number of ejaculations) at a dose of 0.85 to 5.1 mg/kg when administered daily is shown in FIG. 3

[4] = tested on: hemigonadectomized rats; assay: Sexual activity of hemigonadectomized rats (hypogonadal state model); format: in vivo, rat
Description: Evaluation of the effects of ipidacrine pharmaceutical formulation in rats with the reduced sexual activity caused by hemigonadectomy. The hemigonadectomy is similar to the pathological processes observed in the clinical picture and associated with the decrease in hormone production by the sex glands. The model of hypogonadal state in rats induced by the hemigonadectomy corresponds to the pathological processes observed in the clinical picture and associated with the decreased hormone production of the sex glands.
The study of the ipidacrine pharmacological activity was conducted in albino male rats. The following six groups of animals were formed: 1—intact, 2—treated with sildenafil, 3—galantamine, 4—ipidacrine, 5—gonadectomized, 6—control.
30 days before the start of the main study, the experiment was performed (3 times a week for 2 weeks), namely introduction of a receptive female to the male rat. The number of ejaculations was recorded. Those animals whose level of sexual activity was characterized by stable performance of 1-2 ejaculations during the period of the test were selected.
The selected male rats underwent the hemigonadectomy (at the right) performed under ether anesthesia. Then, during 7 and 14 days prior to the course administration of the drugs, daily testing of sexual activity of the hemigonadectomized animals was carried out. The latency period and the number of mounts, intromissions and ejaculations in different groups of the animals were considered.

[5] = tested on: patients with dementia; settings: patients in the treatment of Alzheimer's disease; cited from earlier work

Q: With `CNC(=O)Oc1ccc2c(c1)[C@]1(C)CCN(C)[C@@H]1N2C` [eserine] as the molecule, how does the lordosis [1] read?
A: The lordosis was “increases the lordosis”.

Q: What does the source list for `Nc1c2c(nc3c1CCC3)CCCC2` [ipidacrine, Ipidacrine]?
A: formation of sexual dysfunction ([2]; 1.7 mg/kg once a day prior to the stress): slower formation of sexual dysfunction; parameters of activity in the initial period ([2]; 1.7 mg/kg, 1 to 3 days, versus group nonsusceptible to stress): comparable to the parameters in the group nonsusceptible to the stress; frequency of ejaculations ([2]; 1.7 mg/kg, 3rd to 10th day of the experiment): 60-100%; rate of renewal of activity after the first ejaculation ([2]; 1.7 mg/kg, 3rd to 10th day, versus stressed animals without treatment): higher rate of renewal of activity after the first ejaculation; latency period of intromissions (7th day) and of intromissions and mounts (10th day) versus group without treatment ([2]; 1.7 mg/kg, 7th and 10th day): Significant differences from the group without treatment; number of ejaculations ([2]; 1.7 mg/kg, 10th and 14th day of the 14 day exposure to stress): 0.4-0.6; latency period of mounts and intromissions compared to animals nonsusceptible to stress ([2]; 1.7 mg/kg, starting from the 5th day): significant increase in the latency period of mounts and intromissions; average number of ejaculations in the group ([3]; 0.85 mg/kg daily): 0.6-0.8; rate of occurrence of ejaculations ([3]; 0.85 mg/kg daily): 80%; latency period of mounts and intromissions ([3]; 0.85 mg/kg daily, 7th to 14th day, versus background, trend level, similar changes in control): reduction of the latency period of mounts and intromissions; time to renewal of sexual activity after the first ejaculation (on the average) ([3]; 0.85 mg/kg daily, some animals): 4 to 6 min; sexual activity ([3]; 0.85 mg/kg daily, starting with the 2nd week): increase in the sexual activity; number of animals able to ejaculate ([3]; 1.7 mg/kg): up to 80%; effect on the sexual function ([3]; 1.7 mg/kg, 14 days): activating effect on the sexual function throughout the whole observation period; reduction in the latency time of mounts and intromissions ([3]; 1.7 mg/kg, after the first administration): 2 to 4 fold; ejaculatory component ([3]; 1.7 mg/kg, throughout the course of administration): increase of the ejaculatory component in comparison with the control; efficacy in spontaneous sexual hypoactivity ([3]; 5.1 mg/kg): effective only when administered for 5 days; manifestation of the sexual activity on subsequent administration ([3]; 5.1 mg/kg, after the first 5 days): negative effect on the manifestation of the sexual activity; sexual activity (central motivational and ejaculatory components) ([3]; 5.1 mg/kg, first 5 days): increased the sexual activity in the animals during the first 5 days of observation; values of indicators of sexual activity ([3]; 5.1 mg/kg, in 10, 14 days of the experiment): comparable to the control; latency period of mounts ([3]; 5.1 mg/kg, in 3 days of observation, reduced from 33.0±5.35, p<0.05): 9.3 ± 1.93 s; latency period of intromissions ([3]; 5.1 mg/kg, in 3 days of observation, reduced from 59.8 ±11.34, p<0.05): 10.5 ±1.76; level of the sexual activity (fluctuations due to external stressor effects) ([4]; 1.7 mg/kg once daily for 7 days, hemigonadectomized rats): eliminates fluctuations in the level of the sexual activity; time of maximum manifestation of the increase in sexual activity ([4]; 5.1 mg/kg, 2 times a day for 14 days): 3 to 5 days; time of maximum manifestation of the increase in sexual activity ([4]; 0.85 to 1.7 mg/kg, 2 times a day for 14 days): 11 to 14 days; sexual activity of the animals ([4]; 0.85 to 5.1 mg/kg, 2 times a day for 14 days, hemigonadectomized rats): dose-dependent increase in the sexual activity

Q: Which “sexual behavior (side effect)” value [5] does the source give for `COc1cc2c(cc1OC)C(=O)C(CC1CCN(Cc3ccccc3)CC1)C2` (stereo not shown) [donepezil] here?
A: The value was “increase in the sexual behavior”.
